{"source": "patent US20070209082A1", "about": "“Txr1 and enhanced taxane sensitivity based on the modulation of a pathway mediated thereby” (priority 2005, published 2007)", "key": {"[1]": {"test_system": "Clone 18", "assay": "MTT assay of drug sensitivity, Clone 18 cells", "settings": "for Fold of resistance (Clone 18/M2182tTA): IC50 of clone 18 divided by IC50 of M2182tTA; for Effect on taxol resistance / taxol cytotoxicity of clone 18: agent added with taxol, MTT assay", "procedure": "(§1) For subsequent plate assays of the effects of taxol and other drugs on colony formation, 1×10^4 cells per 10 cm plate or per each well of six-well plate were seeded one day prior to drug treatment at the concentrations indicated. After 7 to 14 days exposure to drug, the resistant colonies were stained with 0.5% crystal violet solution and photographed. For quantitative determination of the surviving fraction, the collection of crystal violet stained colonies were incubated with 0.5 ml of DMSO overnight and the absorbance at 570 nm of dye extracted solution was measured. The fraction of surviving cells was calculated relative to non-treated controls. Results were averaged from at least two to three independent experiments. For IC50 determination, 3×10^3 cells per well of a 96-well plate were seeded one day prior to treatment by serially diluted drugs or in combination with indicated protein/peptides. The viability of treated cells was quantified by their ability to reduce tetrazolium salt 3-(4,5-dimethylthiazol-2-y)-2,5-diphenyl tetrasodium bromide (MTT, Sigma) to a formazan dye whose absorbance is detectable at 570 nm. The IC50 value was defined as the dose of taxol that inhibited cell growth by 50%."}, "[2]": {"test_system": "M2182tTA", "assay": "MTT assay of drug sensitivity, M2182tTA cells", "format": "cell-based, human", "settings": "for Effect on killing of naive M2182tTA cells by taxol: agent added with taxol", "procedure": "as §1"}, "[3]": {"test_system": "Clone 18", "procedure": "as §1"}, "[4]": {"test_system": "Clone 18 cells", "assay": "TUNEL assay of apoptosis, clone 18 cells", "format": "cell-based, human", "settings": "clone 18, TSP-1 plus taxol", "procedure": "For subsequent plate assays of the effects of taxol and other drugs on colony formation, 1×10^4 cells per 10 cm plate or per each well of six-well plate were seeded one day prior to drug treatment at the concentrations indicated. After 7 to 14 days exposure to drug, the resistant colonies were stained with 0.5% crystal violet solution and photographed. For quantitative determination of the surviving fraction, the collection of crystal violet stained colonies were incubated with 0.5 ml of DMSO overnight and the absorbance at 570 nm of dye extracted solution was measured. The fraction of surviving cells was calculated relative to non-treated controls. Results were averaged from at least two to three independent experiments. For IC50 determination, 3×10^3 cells per well of a 96-well plate were seeded one day prior to treatment by serially diluted drugs or in combination with indicated protein/peptides. The viability of treated cells was quantified by their ability to reduce tetrazolium salt 3-(4,5-dimethylthiazol-2-y)-2,5-diphenyl tetrasodium bromide (MTT, Sigma) to a formazan dye whose absorbance is detectable at 570 nm. The IC50 value was defined as the dose of taxol that inhibited cell growth by 50%. […]"}, "[5]": {"settings": "agent added with adriamycin, etoposide, vinblastine, vincristine or epothilone B"}}, "note": "Where two headings read alike, the source gives them in different places. Ends that are not written are not given here."}
{"compound": "COc1cccc2c1C(=O)c1c(O)c3c(c(O)c1C2=O)C[C@@](O)(C(=O)CO)C[C@@H]3O[C@H]1C[C@H](N)[C@H](O)[C@H](C)O1", "note": "[Adriamycin, adriamycin]", "values": [{"measurement": "Reduced killing of clone 18 cells (versus parental cells)", "setting": "[1]", "value": "No evidence of reduced killing"}]}
{"compound": "C/C(=C\\c1csc(C)n1)[C@@H]1C[C@@H]2O[C@]2(C)CCC[C@H](C)[C@H](O)[C@@H](C)C(=O)C(C)(C)[C@@H](O)CC(=O)O1", "note": "[Epothilone B]", "values": [{"measurement": "Reduced killing of clone 18 cells (versus parental cells)", "setting": "[1]", "value": "No evidence of reduced killing"}, {"measurement": "Fold of resistance (Clone 18/M2182tTA)", "setting": "[1]", "value": 0.9}]}
{"compound": "COc1cc([C@@H]2c3cc4c(cc3[C@@H](O[C@@H]3O[C@@H]5CO[C@@H](C)O[C@H]5[C@H](O)[C@H]3O)[C@H]3COC(=O)[C@H]23)OCO4)cc(OC)c1O", "note": "[Etoposide, etoposide]", "values": [{"measurement": "Reduced killing of clone 18 cells (versus parental cells)", "setting": "[1]", "value": "No evidence of reduced killing"}]}
{"compound": "CC(=O)O[C@H]1C(=O)[C@@]2(C)[C@H]([C@H](OC(=O)c3ccccc3)[C@]3(O)C[C@H](OC(=O)[C@H](O)[C@@H](NC(=O)c4ccccc4)c4ccccc4)C(C)=C1C3(C)C)[C@]1(OC(C)=O)CO[C@@H]1C[C@@H]2O", "note": "[Taxol, Paclitaxel]", "values": [{"measurement": "Fold of resistance (Clone 18/M2182tTA)", "setting": "[1]", "value": "approximately two and a half-fold greater"}]}
{"compound": "CC[C@]1(O)C[C@@H]2CN(CCc3c([nH]c4ccccc34)[C@@](C(=O)OC)(c3cc4c(cc3OC)N(C)[C@H]3[C@@](O)(C(=O)OC)[C@H](OC(C)=O)[C@]5(CC)C=CCN6CC[C@]43[C@@H]65)C2)C1", "note": "[Vinblastine, vinblastine]", "values": [{"measurement": "Reduced killing of clone 18 cells (versus parental cells)", "setting": "[1]", "value": "No evidence of reduced killing"}]}
{"compound": "CC[C@]1(O)C[C@H]2CN(CCc3c([nH]c4ccccc34)[C@@](C(=O)OC)(c3cc4c(cc3OC)N(C=O)[C@H]3[C@@](O)(C(=O)OC)[C@H](OC(C)=O)[C@]5(CC)C=CCN6CC[C@]43[C@@H]65)C2)C1", "note": "[Vincristine, vincristine]", "values": [{"measurement": "Reduced killing of clone 18 cells (versus parental cells)", "setting": "[1]", "value": "No evidence of reduced killing"}]}
{"compound": "GVITRIR (human) [ABT-510]", "values": [{"measurement": "Effect on taxol resistance / taxol cytotoxicity of clone 18", "setting": "[1]", "value": "absence of any detectable effect"}, {"measurement": "Effect on taxol resistance / taxol cytotoxicity of clone 18", "setting": "[1]; listed as ABT510", "value": "no effect"}, {"measurement": "Effect on killing of naive M2182tTA cells by taxol", "setting": "[2]; MTT assay", "value": "not and absence of any detectable effect"}]}
{"compound": "KRFYGGMWKK [4NGG]", "values": [{"measurement": "Effect on taxol resistance / taxol cytotoxicity of clone 18", "setting": "[1]", "value": "no effect"}]}
{"compound": "KRFYVVMWKK [4N1K]", "values": [{"measurement": "Effect on taxol resistance / taxol cytotoxicity of clone 18", "setting": "[1]", "value": "dose-dependent partial reversal"}]}
{"compound": "TSP-1: TSP-1 purified from human platelets; extracellular matrix bound adhesive glycoprotein", "values": [{"measurement": "Effect on taxol resistance / taxol cytotoxicity of clone 18", "setting": "[3]", "value": "dose-dependent partial reversal"}, {"measurement": "Ability of TSP-1 alone to reduce survival and induce apoptosis", "setting": "[1]; TSP-1 alone, at the dosage added to cultures of clone 18 cells", "value": "only limited ability to reduce survival and induce apoptosis"}, {"measurement": "Effect on killing of clone 18 cells by other chemotherapeutic agents", "setting": "[1]; [5]", "value": "no effects"}, {"measurement": "Effect on sensitivity of M2182tTA cells to other chemotherapeutic drugs", "setting": "[2]; [5]", "value": "sensitization was not observed"}, {"measurement": "Effect on killing of naive M2182tTA cells by taxol", "setting": "[2]; MTT assay", "value": "reduced survival"}, {"measurement": "Taxol-induced apoptosis", "setting": "[4]", "value": "dramatically and synergistically increased"}]}
{"compound": "pertussus toxin", "values": [{"measurement": "Cells that survive taxol treatment", "setting": "[2]; M2182tTA, 0.5 μg/ml pertussis toxin, MTT assay", "value": "An increase in cells that survive taxol treatment"}]}
